According to patent publication US20200323934A1, “PHARMACEUTICAL COMPOSITION AND FOOD” (Sankyo Holdings Co., Ltd., priority 2016, published 2020):

System: CRE-dependent transcription (PKA/ERK/CREB intracellular signaling)
Assay: luciferase reporter assay of CRE-dependent gene transcription activity in plasmid-transfected PC12 cells
Assay type: cell-based, rat
Description: In order to evaluate the gene transcription activity of each sample, the luciferase reporter assay was performed.
The luciferase assay is used to quantitatively analyze the transcription activity of a test material. In order to activate the transcription, various control sequences present in an upstream promoter of a gene are required.
In this embodiment, a plasmid was used in which a CRE sequence which was a control sequence activated by the PKA/ERK/CREB intracellular signaling and was present in an upstream promoter of a memory, and in which learning-related gene and a gene of a luciferase functioning as a luminescent enzyme were connected to each other.
When the test material activates the CRE-dependent transcription, the luciferase gene present at a downstream side is expressed, and the expression thereof is increased, so that a luciferase protein is increased.
PC12 cells (rat adrenal medulla pheochromocytoma derived cell line) were seeded in 96-well culture dish at a seeding density of 4.0×10^4 cells/well. Subsequently, the plasmid was transfected in the PC12 cell, and the cultivation was performed in a medium to which each of the samples was dripped. As the medium, an α-modified Dulbecco's modified Eagle's medium supplemented with 1% serum (DMEM) was used. […]

## COc1ccc(-c2cc(=O)c3c(OC)c(OC)c(OC)c(OC)c3o2)cc1OC [Nobiletin, nobiletin]
In combination with Anredera cordifolia, suggested from ponkan's peel extract assumed to contain 1% nobiletin
  concentration at which nobiletin has an enhancing action: ≤ 2 µg/mL
Nobiletin solution alone
  concentration at which nobiletin expresses the luciferase activity: 2 µg/mL
